Measured values from patent publication US12145948B2, “Compounds and methods for modulating HER2” (IAMBIC THERAPEUTICS, INC., priority 2022, dated 2024).

How the values were obtained:
BaF3_HER2WT cells = BaF3_HER2WT cells (Homo sapiens, UniProt P04626); experiment: Cell growth inhibition assay (CellTiterGlo, 3 days), BaF3_HER2WT; type: cell-based; conditions: read-out: HER2 WT IC50
[1] = target: T1, ERBB2-A775_G776insYVMA (ERBB2YVMA) (Homo sapiens, UniProt P04626, INS775YVMA); experiment: HotSpot radiometric kinase activity assay, ERBB2YVMA; conditions: biochemical activity, read-out: HER2-YVMA IC50
T1 construct: purchased SignalChem E27-13BG
Procedure: The purpose of the wtERBB2, ERBB2-A775_G776insYVMA (ERBB2YVMA), wtEGFR biochemical assay was to evaluate the inhibition (% inhibition and IC50 values) of the small molecule inhibitors by using the “HotSpot” radiometric kinase activity assay. HotSpot assays monitor the […] of kinase substrate by the radioactive gamma phosphate of adenosine triphosphate (33P-ATP) during biochemical reactions. HotSpot assays was performed in steps upon completion of the kinase reaction: deposition of a reaction mixture aliquot onto P81 ion exchange paper, extensive washing of the aforementioned P81 paper using phosphoric acid to remove unbound radiolabeled 33P-ATP from the P81 paper, and finally visualization and quantification of the dried P81 paper utilizing a phosphoimager. […] Typical reaction solutions (10 μL final reaction volume) contained the following buffer conditions: 20 mM Hepes (pH 7.5), 10 mM MgCl2, 1 mM EGTA, 0.01% Brij35, 0.02 mg/mL BSA, 0.1 mM Na3VO4, 2 mM DTT, 1% DMSO. The assay was primed by preparing a fresh 0.2 mg/mL solution of pEY (Sigma Cat: P7244) substrate in the reaction buffer and supplementing that solution with […] of MnCl2 as substrate cofactor (Sigma Cat: M9522). The kinase of interest was then added to the solution at the appropriate concentration (30 nM wtERBB2 from, or 20 nM ERBB2YVMA, or 4 nM wtEGFR) and gently mixed prior to delivery of compound in 100% DMSO by acoustic dispensing (Beckman Echo550). Compound, Kinase, and substrate were allowed to incubate for 20 min at room temperature prior to the initiation of the reaction by addition of 33P-ATP (PerkinElmer Cat: NEG602, final conc 10 μM). […] IC50 determinations were made from a plot of kinase activity as a function of inhibitor concentration fit to the 4-parameter IC50 equation with the enzyme concentration held constant using GraphPad Prism (San Diego).

BaF3-HER2YVMA cells = BaF3-HER2YVMA cells (Homo sapiens, UniProt P04626, DUP772-775, cells depend on it); experiment: Cell growth inhibition assay (CellTiterGlo, 3 days), BaF3-HER2YVMA; type: cell-based; conditions: BaF3_HER2YVMA cells, read-out: HER2-YVMA IC50
BaF3_EGFRWT cells = BaF3_EGFRWT cells (Homo sapiens, UniProt P00533); experiment: Cell growth inhibition assay (CellTiterGlo, 3 days), BaF3_EGFRWT; type: cell-based; conditions: read-out: EGFR WT IC50
Chain of BaF3_EGFRWT cells (P00533 whole entry, change not shown): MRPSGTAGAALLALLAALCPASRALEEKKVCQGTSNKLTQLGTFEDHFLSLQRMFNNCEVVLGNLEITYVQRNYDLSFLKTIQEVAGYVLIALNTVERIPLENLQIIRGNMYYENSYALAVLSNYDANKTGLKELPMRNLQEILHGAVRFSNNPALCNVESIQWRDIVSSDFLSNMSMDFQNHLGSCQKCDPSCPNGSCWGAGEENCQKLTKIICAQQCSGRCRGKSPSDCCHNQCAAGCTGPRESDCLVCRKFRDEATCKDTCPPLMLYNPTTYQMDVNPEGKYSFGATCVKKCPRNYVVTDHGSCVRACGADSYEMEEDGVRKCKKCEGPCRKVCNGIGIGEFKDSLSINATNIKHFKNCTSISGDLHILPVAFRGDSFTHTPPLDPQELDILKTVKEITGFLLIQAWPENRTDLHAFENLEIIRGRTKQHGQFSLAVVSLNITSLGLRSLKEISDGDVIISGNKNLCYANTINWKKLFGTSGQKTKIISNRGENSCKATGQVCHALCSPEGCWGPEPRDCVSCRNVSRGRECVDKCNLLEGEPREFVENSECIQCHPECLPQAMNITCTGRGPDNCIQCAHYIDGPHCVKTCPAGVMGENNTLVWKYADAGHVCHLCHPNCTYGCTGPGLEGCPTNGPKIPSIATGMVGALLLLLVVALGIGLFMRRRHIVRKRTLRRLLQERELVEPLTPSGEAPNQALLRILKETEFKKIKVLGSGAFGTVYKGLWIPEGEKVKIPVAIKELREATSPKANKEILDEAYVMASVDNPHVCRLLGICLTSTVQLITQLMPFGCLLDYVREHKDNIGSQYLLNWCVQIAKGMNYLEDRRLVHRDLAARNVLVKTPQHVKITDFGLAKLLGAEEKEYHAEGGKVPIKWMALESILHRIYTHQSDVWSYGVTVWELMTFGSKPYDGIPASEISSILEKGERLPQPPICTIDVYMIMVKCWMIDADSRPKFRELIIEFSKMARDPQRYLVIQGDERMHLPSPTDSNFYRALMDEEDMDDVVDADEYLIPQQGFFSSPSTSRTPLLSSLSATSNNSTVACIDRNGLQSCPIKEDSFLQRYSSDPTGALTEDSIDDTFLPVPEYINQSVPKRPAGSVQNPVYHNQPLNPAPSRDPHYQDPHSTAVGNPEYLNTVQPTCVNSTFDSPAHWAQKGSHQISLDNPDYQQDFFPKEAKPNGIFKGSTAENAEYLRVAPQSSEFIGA

T1 sequence (P04626 with tags, fused parts or gaps INS775YVMA limits assumed): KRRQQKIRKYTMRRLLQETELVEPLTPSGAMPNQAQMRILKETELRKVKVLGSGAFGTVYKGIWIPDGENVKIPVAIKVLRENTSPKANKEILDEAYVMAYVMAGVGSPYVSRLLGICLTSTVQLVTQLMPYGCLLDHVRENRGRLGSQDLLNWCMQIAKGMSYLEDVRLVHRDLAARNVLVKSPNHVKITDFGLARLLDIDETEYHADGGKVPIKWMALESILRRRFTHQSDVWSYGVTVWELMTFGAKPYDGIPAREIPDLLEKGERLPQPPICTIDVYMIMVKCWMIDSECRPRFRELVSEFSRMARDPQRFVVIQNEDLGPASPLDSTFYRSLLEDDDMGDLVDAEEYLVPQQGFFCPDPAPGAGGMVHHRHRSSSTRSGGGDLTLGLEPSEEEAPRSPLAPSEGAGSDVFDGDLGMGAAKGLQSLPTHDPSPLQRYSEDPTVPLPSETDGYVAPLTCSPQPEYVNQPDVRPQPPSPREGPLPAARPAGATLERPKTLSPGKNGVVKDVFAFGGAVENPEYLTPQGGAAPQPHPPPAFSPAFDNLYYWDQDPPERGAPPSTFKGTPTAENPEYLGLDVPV
Chain of BaF3_HER2WT cells (P04626 whole entry, stated change not applied): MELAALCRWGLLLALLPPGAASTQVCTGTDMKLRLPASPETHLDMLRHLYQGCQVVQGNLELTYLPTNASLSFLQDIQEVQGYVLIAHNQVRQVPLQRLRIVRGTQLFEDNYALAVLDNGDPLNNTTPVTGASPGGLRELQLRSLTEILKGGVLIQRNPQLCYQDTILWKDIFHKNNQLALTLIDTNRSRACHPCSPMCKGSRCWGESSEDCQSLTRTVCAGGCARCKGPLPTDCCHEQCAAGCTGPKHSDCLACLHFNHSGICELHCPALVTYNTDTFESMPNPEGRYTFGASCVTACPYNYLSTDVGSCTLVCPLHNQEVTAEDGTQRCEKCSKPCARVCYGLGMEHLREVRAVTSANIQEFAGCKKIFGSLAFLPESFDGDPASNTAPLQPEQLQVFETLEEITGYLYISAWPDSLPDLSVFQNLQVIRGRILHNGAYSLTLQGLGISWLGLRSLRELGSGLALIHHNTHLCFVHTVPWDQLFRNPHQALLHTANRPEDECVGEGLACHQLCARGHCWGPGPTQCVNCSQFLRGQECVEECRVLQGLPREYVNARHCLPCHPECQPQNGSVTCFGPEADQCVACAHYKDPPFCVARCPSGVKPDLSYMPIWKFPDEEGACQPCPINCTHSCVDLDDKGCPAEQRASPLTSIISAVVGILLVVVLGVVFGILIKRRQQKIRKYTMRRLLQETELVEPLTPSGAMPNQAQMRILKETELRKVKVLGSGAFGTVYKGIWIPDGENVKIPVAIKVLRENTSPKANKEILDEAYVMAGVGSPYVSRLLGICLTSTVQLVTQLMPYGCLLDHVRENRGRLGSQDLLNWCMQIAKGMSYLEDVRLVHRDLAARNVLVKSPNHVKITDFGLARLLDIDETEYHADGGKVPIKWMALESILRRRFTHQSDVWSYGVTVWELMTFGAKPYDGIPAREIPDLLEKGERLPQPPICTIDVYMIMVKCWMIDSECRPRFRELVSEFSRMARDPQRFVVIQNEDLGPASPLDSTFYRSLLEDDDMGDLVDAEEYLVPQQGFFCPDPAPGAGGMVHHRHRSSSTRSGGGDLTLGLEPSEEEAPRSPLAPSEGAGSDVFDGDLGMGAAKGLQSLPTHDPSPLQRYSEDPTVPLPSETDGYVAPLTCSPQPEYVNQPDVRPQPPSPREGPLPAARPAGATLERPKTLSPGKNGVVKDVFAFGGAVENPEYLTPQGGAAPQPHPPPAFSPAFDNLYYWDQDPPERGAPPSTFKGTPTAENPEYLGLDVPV
Chain of BaF3-HER2YVMA cells (P04626 with tags, fused parts or gaps DUP772-775): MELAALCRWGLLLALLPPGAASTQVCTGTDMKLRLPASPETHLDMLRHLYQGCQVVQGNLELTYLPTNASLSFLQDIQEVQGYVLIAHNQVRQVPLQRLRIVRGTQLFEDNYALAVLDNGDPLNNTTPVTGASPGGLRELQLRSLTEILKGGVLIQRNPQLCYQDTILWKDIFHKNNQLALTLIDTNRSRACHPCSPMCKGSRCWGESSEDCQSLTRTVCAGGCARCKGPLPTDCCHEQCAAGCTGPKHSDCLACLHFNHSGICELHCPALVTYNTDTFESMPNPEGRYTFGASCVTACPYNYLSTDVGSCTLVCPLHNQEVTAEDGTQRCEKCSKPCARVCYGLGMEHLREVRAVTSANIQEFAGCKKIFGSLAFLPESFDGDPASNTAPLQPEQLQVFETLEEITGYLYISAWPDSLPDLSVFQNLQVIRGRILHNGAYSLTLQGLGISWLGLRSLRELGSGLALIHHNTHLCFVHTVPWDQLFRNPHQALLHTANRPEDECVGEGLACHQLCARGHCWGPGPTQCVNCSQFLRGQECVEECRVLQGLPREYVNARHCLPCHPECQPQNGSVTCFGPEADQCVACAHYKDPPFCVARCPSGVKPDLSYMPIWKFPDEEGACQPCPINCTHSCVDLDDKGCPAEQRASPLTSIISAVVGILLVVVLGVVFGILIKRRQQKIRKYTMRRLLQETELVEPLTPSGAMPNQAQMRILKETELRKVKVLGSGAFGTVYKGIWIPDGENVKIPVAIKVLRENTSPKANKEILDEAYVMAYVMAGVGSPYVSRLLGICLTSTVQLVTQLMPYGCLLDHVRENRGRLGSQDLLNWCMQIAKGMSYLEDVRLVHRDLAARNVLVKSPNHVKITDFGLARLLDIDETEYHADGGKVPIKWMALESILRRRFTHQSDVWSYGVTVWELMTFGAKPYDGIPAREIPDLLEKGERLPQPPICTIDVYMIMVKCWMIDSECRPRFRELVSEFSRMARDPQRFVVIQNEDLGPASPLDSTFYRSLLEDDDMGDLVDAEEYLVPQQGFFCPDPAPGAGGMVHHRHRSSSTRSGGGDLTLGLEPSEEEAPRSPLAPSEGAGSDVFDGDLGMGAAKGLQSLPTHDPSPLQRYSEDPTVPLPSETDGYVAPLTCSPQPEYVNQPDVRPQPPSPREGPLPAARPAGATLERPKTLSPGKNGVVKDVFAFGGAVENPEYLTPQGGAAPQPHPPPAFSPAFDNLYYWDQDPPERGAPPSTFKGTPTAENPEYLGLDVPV

Cc1cc(Nc2ncnn3ccc(C4CC5CCC4CN5C(=O)/C=C/CN(C)C)c23)ccc1Oc1ccn2ncnc2c1 (single isomer, unassigned; first eluting) [first eluting isomer of Examples 137 and 138]
GI50 (BaF3_HER2WT cells): < 200 nM

Cc1cc(Nc2ncnn3ccc([C@H]4CCCN(C(=O)/C=C/CN(C)C)CC4)c23)ccc1Oc1ccn2ncnc2c1 (single isomer, unassigned) [Example 110]
IC50 [1]: < 200 nM

Cc1cc(Nc2ncnn3ccc([C@H]4CCN(C(=O)/C=C/CN(C)C)C4)c23)ccc1Oc1ccn2ncnc2c1 (single isomer, unassigned) [Example 100]
IC50 [1]: < 200 nM

C=C(CN(C)C)C(=O)N1C2C=C(c3ccn4ncnc(Nc5ccc(Oc6ccn7ncnc7c6)c(C)c5)c34)CC1CC2 (stereo not shown) [Example 30, 1-(3-(4-((4-([1,2,4]triazolo[1,5-a]pyridin-7-yloxy)-3-methylphenyl)amino)pyrrolo[2,1-f][1,2,4]triazin-5-yl)-8-azabicyclo[3.2.1]oct-2-en-8-yl)-2-((dimethylamino)methyl) prop-2-en-1-one acetate]
GI50 (BaF3-HER2YVMA cells): < 200 nM | GI50 (BaF3_HER2WT cells): < 200 nM | GI50 (BaF3_EGFRWT cells): 1500 to 5000 nM

Cc1cc(Nc2ncnn3ccc([C@H]4CCCN(C(=O)/C=C/CN(C)C)C4)c23)ccc1Oc1ccn2ncnc2c1 (single isomer, unassigned) [Example 108]
IC50 [1]: < 200 nM

Cc1cc(Nc2ncnn3ccc(C4CCN(C(=O)[C@@H](F)Cl)CC4)c23)ccc1Oc1ccn2ncnc2c1 (single isomer, unassigned) [second eluting isomer of Examples 173 and 174]
GI50 (BaF3-HER2YVMA cells): < 200 nM | GI50 (BaF3_HER2WT cells): < 200 nM | GI50 (BaF3_EGFRWT cells): 1500 to 5000 nM
